From ChEMBL document CHEMBL1201862, “PubChem BioAssay data set” (2004)
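A five-concentration, 48-hour dose response in 96-well plates underlies each endpoint, interpolated linearly between surrounding concentrations. Abbreviation: GI50, concentration required for 50% inhibition of growth.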 Active and inactive are the calls of the source. Rule as the data show it: active = GI50 up to about 1.1 µM and inactive = higher.

Tests used:
Assay in all cases: DTP human tumour cell line panel, 48 h
OVCAR-5 = tested on: OVCAR-5
LXFL 529 = tested on: LXFL 529
KM-20L2 = tested on: KM-20L2
SNB-19 = tested on: SNB-19
CCRF-CEM = tested on: CCRF-CEM
M14 = tested on: M14
KM12 = tested on: KM12
SR = tested on: SR
NCI-H23 = tested on: NCI-H23
SK-MEL-5 = tested on: SK-MEL-5
DLD-1 = tested on: DLD-1
786-0 = tested on: 786-0
IGROV-1 = tested on: IGROV-1
K562 = tested on: K562
HCT-116 = tested on: HCT-116
Malme-3M = tested on: Malme-3M
SF-539 = tested on: SF-539
OVCAR-4 = tested on: OVCAR-4
COLO 205 = tested on: COLO 205
ACHN = tested on: ACHN
RPMI-8226 = tested on: RPMI-8226
NCI-H522 = tested on: NCI-H522
RXF 393 = tested on: RXF 393
UACC-62 = tested on: UACC-62
HCC 2998 = tested on: HCC 2998
SK-MEL-2 = tested on: SK-MEL-2
SK-OV-3 = tested on: SK-OV-3
OVCAR-3 = tested on: OVCAR-3
NCI-H460 = tested on: NCI-H460
EKVX = tested on: EKVX
HOP-62 = tested on: HOP-62
HT-29 = tested on: HT-29
SNB-75 = tested on: SNB-75
RXF 631 = tested on: RXF 631
HOP-18 = tested on: HOP-18
SNB-78 = tested on: SNB-78
NCI-H226 = tested on: NCI-H226
SF-268 = tested on: SF-268
TK-10 = tested on: TK-10
DMS-273 = tested on: DMS-273
U-251 = tested on: U-251
SF-295 = tested on: SF-295
OVCAR-8 = tested on: OVCAR-8
HCT-15 = tested on: HCT-15
HL-60 = tested on: HL-60
UACC-257 = tested on: UACC-257
UO-31 = tested on: UO-31
CAKI-1 = tested on: CAKI-1
MOLT-4 = tested on: MOLT-4
M19-MEL = tested on: M19-MEL
SK-MEL-28 = tested on: SK-MEL-28
A549 = tested on: A549
DMS-114 = tested on: DMS-114
SN12C = tested on: SN12C
SW-620 = tested on: SW-620
A498 = tested on: A498
LOX IMVI = tested on: LOX IMVI
XF498 = tested on: XF498
HOP-92 = tested on: HOP-92

O=C(O)CCC(N/C=C1/N=C(c2ccccc2)OC1=O)C(=O)O (configuration not stated)
GI50 (OVCAR-5): > 100 µM (inactive) | GI50 (LXFL 529): > 100 µM (inactive) | GI50 (KM-20L2): > 100 µM (inactive) | GI50 (SNB-19): > 100 µM (inactive) | GI50 (CCRF-CEM): > 100 µM (inactive) | GI50 (M14): > 100 µM (inactive) | GI50 (KM12): > 100 µM (inactive) | GI50 (SR): > 100 µM (inactive) | GI50 (NCI-H23): > 100 µM (inactive) | GI50 (SK-MEL-5): > 100 µM (inactive) | GI50 (DLD-1): > 100 µM (inactive) | GI50 (786-0): > 100 µM (inactive) | GI50 (IGROV-1): > 100 µM (inactive) | GI50 (K562): > 100 µM (inactive) | GI50 (HCT-116): > 100 µM (inactive) | GI50 (Malme-3M): > 100 µM (inactive) | GI50 (SF-539): > 100 µM (inactive) | GI50 (OVCAR-4): > 100 µM (inactive) | GI50 (COLO 205): > 100 µM (inactive) | GI50 (ACHN): > 100 µM (inactive) | GI50 (RPMI-8226): > 100 µM (inactive) | GI50 (NCI-H522): > 100 µM (inactive) | GI50 (RXF 393): > 100 µM (inactive) | GI50 (UACC-62): > 100 µM (inactive) | GI50 (HCC 2998): > 100 µM (inactive) | GI50 (SK-MEL-2): > 100 µM (inactive) | GI50 (SK-OV-3): > 100 µM (inactive) | GI50 (OVCAR-3): > 100 µM (inactive) | GI50 (NCI-H460): > 100 µM (inactive) | GI50 (EKVX): > 100 µM (inactive) | GI50 (HOP-62): > 100 µM (inactive) | GI50 (HT-29): > 100 µM (inactive) | GI50 (SNB-75): > 100 µM (inactive) | GI50 (RXF 631): > 100 µM (inactive) | GI50 (HOP-18): 36.1 µM (inactive) | GI50 (SNB-78): > 100 µM (inactive) | GI50 (NCI-H226): > 100 µM (inactive) | GI50 (SF-268): > 100 µM (inactive) | GI50 (TK-10): > 100 µM (inactive) | GI50 (DMS-273): > 100 µM (inactive) | GI50 (U-251): > 100 µM (inactive) | GI50 (SF-295): > 100 µM (inactive) | GI50 (OVCAR-8): > 100 µM (inactive) | GI50 (HCT-15): > 100 µM | GI50 (HL-60): 10 µM (inactive) | GI50 (UACC-257): > 100 µM (inactive) | GI50 (UO-31): > 100 µM (inactive) | GI50 (CAKI-1): > 100 µM (inactive) | GI50 (MOLT-4): > 100 µM (inactive) | GI50 (M19-MEL): > 100 µM (inactive) | GI50 (SK-MEL-28): > 100 µM (inactive) | GI50 (A549): > 100 µM (inactive) | GI50 (DMS-114): > 100 µM (inactive) | GI50 (SN12C): > 100 µM (inactive) | GI50 (SW-620): > 100 µM (inactive) | GI50 (A498): > 100 µM (inactive)

CCc1cccc(C)c1NC(=O)CCc1nnc2s/c(=C\c3cccc4ccccc34)c(=O)n12
GI50 (LOX IMVI): 80.7 µM (inactive) | GI50 (OVCAR-5): > 100 µM (inactive) | GI50 (LXFL 529): 73.3 µM (inactive) | GI50 (KM-20L2): > 100 µM (inactive) | GI50 (SNB-19): > 100 µM (inactive) | GI50 (CCRF-CEM): 92.9 µM (inactive) | GI50 (M14): 45.6 µM (inactive) | GI50 (KM12): 92.7 µM (inactive) | GI50 (NCI-H23): > 100 µM (inactive) | GI50 (SK-MEL-5): > 100 µM (inactive) | GI50 (DLD-1): 60 µM (inactive) | GI50 (786-0): > 100 µM (inactive) | GI50 (IGROV-1): > 100 µM (inactive) | GI50 (K562): 30.3 µM (inactive) | GI50 (HCT-116): 57.1 µM (inactive) | GI50 (Malme-3M): > 100 µM (inactive) | GI50 (SF-539): > 100 µM (inactive) | GI50 (OVCAR-4): > 100 µM (inactive) | GI50 (COLO 205): > 100 µM (inactive) | GI50 (ACHN): > 100 µM (inactive) | GI50 (RPMI-8226): 23.8 µM (inactive) | GI50 (NCI-H522): > 100 µM (inactive) | GI50 (RXF 393): > 100 µM (inactive) | GI50 (UACC-62): > 100 µM (inactive) | GI50 (HCC 2998): > 100 µM (inactive) | GI50 (SK-MEL-2): > 100 µM (inactive) | GI50 (SK-OV-3): > 100 µM (inactive) | GI50 (OVCAR-3): 78 µM (inactive) | GI50 (NCI-H460): > 100 µM (inactive) | GI50 (HOP-62): > 100 µM (inactive) | GI50 (HT-29): > 100 µM (inactive) | GI50 (SNB-75): > 100 µM (inactive) | GI50 (RXF 631): > 100 µM (inactive) | GI50 (SNB-78): > 100 µM (inactive) | GI50 (NCI-H226): > 100 µM (inactive) | GI50 (SF-268): > 100 µM (inactive) | GI50 (TK-10): > 100 µM (inactive) | GI50 (XF498): > 100 µM (inactive) | GI50 (DMS-273): 61.4 µM (inactive) | GI50 (U-251): > 100 µM (inactive) | GI50 (SF-295): 71.1 µM (inactive) | GI50 (OVCAR-8): > 100 µM (inactive) | GI50 (HCT-15): 89.1 µM | GI50 (HL-60): 44.6 µM (inactive) | GI50 (UACC-257): > 100 µM (inactive) | GI50 (UO-31): > 100 µM (inactive) | GI50 (HOP-92): > 100 µM (inactive) | GI50 (CAKI-1): > 100 µM (inactive) | GI50 (MOLT-4): 17.9 µM (inactive) | GI50 (M19-MEL): > 100 µM (inactive) | GI50 (SK-MEL-28): > 100 µM (inactive) | GI50 (A549): > 100 µM (inactive) | GI50 (DMS-114): 36 µM (inactive) | GI50 (SN12C): > 100 µM (inactive) | GI50 (SW-620): > 100 µM (inactive) | GI50 (A498): > 100 µM (inactive)
